{
  "source": "patent US8877770B2",
  "about": "“Polymorph of rifaximin and process for the preparation thereof” (Clarochem Ireland Limited, priority 2011, dated 2014)",
  "key": {"[1]": {"assay": "Stability testing following conditioning in a humid atmosphere (80% RH, 24 hours)", "assay_type": "physicochemical", "conditions": "80% relative humidity", "description": "Stability testing of the polymorph of Rifaximin following conditioning in a humid atmosphere.\nTwo samples of the polymorphic form κ of Rifaximin: 63/11A, which was obtained by means of the procedure of example 4, and 69/11B, which was obtained by means of the procedure of example 1, were maintained for 24 hours in an environment of relative humidity equal to 80%. At the end of the conditioning, an increase of approximately 3%, ascribable to the adsorption of water from the environment, was recorded."}, "[2]": {"assay": "Exposure at room temperature to variable relative humidity for 12 days and to RH 80% for 5 months", "assay_type": "physicochemical", "text": "The polymorph obtained with the procedure described in example 2 was exposed at room temperature to variable relative humidity for a time period of 12 days, and then for a period of 5 months. When the humidity was increased, there were increases in the mass as shown in Table 2 for 12 days and Table 3 for 5 months."}},
  "note": "“Also recorded” adds a separate entry of the source.",
  "data": [
    {"smiles": "CO[C@H]1/C=C/O[C@@]2(C)Oc3c(C)c(O)c4c(O)c(c5c(nc6cc(C)ccn65)c4c3C2=O)NC(=O)/C(C)=C\\C=C\\[C@H](C)[C@H](O)[C@@H](C)[C@@H](O)[C@@H](C)[C@H](OC(C)=O)[C@@H]1C", "note": "[polymorph κ, (2S,16Z,18E,20S,21S,22R,23R,24R,25S,26S,27S,28E)-5,6,21,23,25-pentahydroxy-27-methoxy-2,4,11,16,20,22,24,26-octamethyl-2,7-(epoxypentadeca-[1,11,13]-trienimmino)-benzofuro-[4,5-e]-pirido-[1,2-α]-benzimidazol-1,15(2H)-dione,25-acetate]", "values": [
      {"measurement": "XRPD pattern pre/post-conditioning", "setting": "[1]", "value": "substantially identical to one another; also recorded: without registering significant changes in the XRPD pattern"},
      {"measurement": "increase of mass of the sample (adsorption of water)", "setting": "[1]", "value": "about 3%"},
      {"measurement": "increase of mass of the sample (adsorption of water)", "setting": "[1]; listed as 63/11A", "value": "approximately 3%"},
      {"measurement": "increase of mass of the sample (adsorption of water)", "setting": "[1]; listed as 69/11B", "value": "approximately 3%"},
      {"measurement": "% water after exposure to 80% humidity (RH 80%)", "setting": "[2]; 1 month", "value": 4.38, "unit": "%"},
      {"measurement": "% water after exposure to 80% humidity (RH 80%)", "setting": "[2]; 2 months", "value": 4.45, "unit": "%"},
      {"measurement": "% water after exposure to 80% humidity (RH 80%)", "setting": "[2]; 5 months", "value": 4.55, "unit": "%"},
      {"measurement": "value at which the increase of mass becomes stable", "setting": "[2]; 80% humidity, stable after 4 days, unchanged after 5 months", "value": "approximately 4.5%"},
      {"measurement": "% water after exposure to 80% humidity (RH 80%)", "setting": "[2]; 4 days", "value": 4.38, "unit": "%"},
      {"measurement": "% water after exposure to 80% humidity (RH 80%)", "setting": "[2]; 7 days", "value": 4.44, "unit": "%"},
      {"measurement": "% water after exposure to 80% humidity (RH 80%)", "setting": "[2]; 14 days", "value": 4.37, "unit": "%"},
      {"measurement": "% water following exposure to 80% and 45% humidity", "setting": "[2]; RH 80% 4 days, total days 4", "value": 4.66, "unit": "%"},
      {"measurement": "DRX pattern after conditioning", "setting": "[2]; RH 80%, 5 months", "value": "correspond to that one shown in FIG. 1"},
      {"measurement": "nature of the water adsorption process", "setting": "[2]; cycling between RH 80% and RH 45%, 12 days", "value": "superficial and reversible"},
      {"measurement": "% water after exposure to 80% humidity (RH 80%)", "setting": "[2]; initial", "value": 1.85, "unit": "%"},
      {"measurement": "% water following exposure to 80% and 45% humidity", "setting": "[2]; initial, total days 0", "value": 1.85, "unit": "%"},
      {"measurement": "maximum adsorption", "setting": "[2]; prolonged exposure to relative humidity of 80%", "value": 4.5, "unit": "%"},
      {"measurement": "% water following exposure to 80% and 45% humidity", "setting": "[2]; then RH 45% 1 day, total days 12", "value": 3.43, "unit": "%"},
      {"measurement": "% water following exposure to 80% and 45% humidity", "setting": "[2]; then RH 45% 3 days, total days 7", "value": 3.40, "unit": "%"},
      {"measurement": "% water following exposure to 80% and 45% humidity", "setting": "[2]; then RH 80% 4 days, total days 11", "value": 4.52, "unit": "%"}
    ]}
  ]
}
